Reference: patent US11225460B2, “Pyrrolidineamide derivatives and uses thereof” (SUNSHINE LAKE PHARMA CO., LTD., priority 2019, dated 2022)

What was measured:
[1] = biological target: T1, Human recombinant monoamine oxidase A (Homo sapiens, UniProt P21397); experiment: Inhibitory effect on the activity of monoamine oxidase A; type: biochemical; settings: human recombinant MAO-A, substrate p-tyramine hydrochloride
T1 construct: host or cells: Sf9 cells
T1 sequence (P21397 1-527): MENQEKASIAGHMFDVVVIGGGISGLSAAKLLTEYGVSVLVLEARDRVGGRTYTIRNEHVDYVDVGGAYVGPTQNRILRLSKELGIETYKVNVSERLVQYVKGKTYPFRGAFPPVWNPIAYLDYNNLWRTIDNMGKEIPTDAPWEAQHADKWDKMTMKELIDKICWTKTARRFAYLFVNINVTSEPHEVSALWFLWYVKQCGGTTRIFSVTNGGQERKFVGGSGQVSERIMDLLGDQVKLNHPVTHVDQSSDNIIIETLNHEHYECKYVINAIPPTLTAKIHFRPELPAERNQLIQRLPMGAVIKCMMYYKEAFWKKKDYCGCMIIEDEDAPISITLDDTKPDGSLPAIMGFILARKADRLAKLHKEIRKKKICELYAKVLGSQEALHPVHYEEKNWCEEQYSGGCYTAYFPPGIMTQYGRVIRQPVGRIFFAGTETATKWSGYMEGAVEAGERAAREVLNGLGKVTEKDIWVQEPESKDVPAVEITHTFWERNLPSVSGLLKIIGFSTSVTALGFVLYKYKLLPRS
Procedure: Human recombinant monoamine oxidase A expressed in Sf9 cells was used in the test system. In the experiment, firstly, the recombinant monoamine oxidase A was dissolved in the pre-configured HEPES buffer (0.8% NaCl, 0.037% KCl, 0.0135% Na2HPO4.2H2O, 0.1% Glucan, 0.5% HEPES, pH=7.0) at a concentration of 0.3 μg/μL. To each well of a 384-well plate was added 10 μL of monoamine oxidase A solution, and the test compound with different concentrations (the final concentration of DMSO was 1%) (10 gradient concentrations were 10 mM, 1 mM, 100 μM, 10 μM, 1 μM, 100 nM, 10 nM, 1 nM, 0.1 nM, 0.01 nM) were added into the wells, respectively. The standard reference compound was Clorgyline, the plate was incubated at room temperature for 15 min. Then, each well filled with […] (p-Tyramine hydrochloride, 1 mM) was incubated at room temperature for 60 min. Then 20 μL of fluorescein detection reagent was added to each well, which was fully blended and incubated at room temperature for 20 minutes to produce stable fluorescence signal. The fluorescence signal was read by fluorescein labeling instrument, and the value was expressed by relative light intensity (RLU). The inhibitory rate on enzyme activity was calculated according to the experimental results, the calculated formula: Inh %=(Max−Signal)/(Max−Min)*100, wherein Max was the detected value at the maximum concentration of the sample, Min was the detected value at the minimum concentration of the sample, and Signal was the detected value at the current concentration of the sample.
(§1) The standard curve was obtained through the series concentration by experimental test to calculate the IC50.

[2] = biological target: T2, Human recombinant monoamine oxidase B (Homo sapiens, UniProt P27338); experiment: Inhibitory effect on the activity of monoamine oxidase B; type: biochemical; settings: human recombinant MAO-B, substrate benzylamine hydrochloride
T2 construct: host or cells: Sf9 cells
T2 sequence (P27338 1-520): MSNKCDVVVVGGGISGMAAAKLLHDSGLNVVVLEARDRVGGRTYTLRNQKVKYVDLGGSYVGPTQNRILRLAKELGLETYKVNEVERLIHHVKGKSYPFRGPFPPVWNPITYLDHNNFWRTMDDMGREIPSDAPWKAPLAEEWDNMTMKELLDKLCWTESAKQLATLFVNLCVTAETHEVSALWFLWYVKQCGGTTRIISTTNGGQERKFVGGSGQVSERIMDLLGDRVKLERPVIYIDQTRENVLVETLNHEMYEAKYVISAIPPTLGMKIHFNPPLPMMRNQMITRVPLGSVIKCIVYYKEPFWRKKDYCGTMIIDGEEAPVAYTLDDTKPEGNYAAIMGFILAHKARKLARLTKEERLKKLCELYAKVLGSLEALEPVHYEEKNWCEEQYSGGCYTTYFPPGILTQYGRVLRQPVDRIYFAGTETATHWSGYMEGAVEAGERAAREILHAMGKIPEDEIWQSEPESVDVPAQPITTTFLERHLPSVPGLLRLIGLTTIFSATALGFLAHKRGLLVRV
Procedure: Human recombinant monoamine oxidase B expressed in Sf9 cells was used in the test system. In the experiment, firstly, the recombinant monoamine oxidase B was dissolved in the pre-configured HEPES buffer (0.8% NaCl, 0.037% KCl, 0.0135% Na2HPO4.2H2O, 0.1% Glucan, 0.5% HEPES, pH=7.0) at a concentration of 0.3 μg/μL. To each well of a 384-well plate was added 10 μL of monoamine oxidase B solution, and the test compound with different concentrations (the final concentration of DMSO was 1%) (10 gradient concentrations were 10 mM, 1 mM, 100 μM, 10 μM, 1 μM, 100 nM, 10 nM, 1 nM, 0.1 nM, 0.01 nM) were added into the wells respectively. The standard reference compound was R-(−)-Deprenyl, the plate was incubated at room temperature for 15 min. Then, each well filled with 10 μL substrate solution (Benzylamine hydrochloride, 1 mM) was incubated at room temperature for 60 min. Then 20 μL of fluorescein detection reagent was added to each well, which was fully blended and incubated at room temperature for 20 minutes to produce stable fluorescence signal. The fluorescence signal was read by fluorescein labeling instrument, and the value was expressed by relative light intensity (RLU). The inhibitory rate on enzyme activity was calculated according to the experimental results, the calculated formula: Inh %=(Max−Signal)/(Max−Min)*100, wherein Max was the detected value at the maximum concentration of the sample, Min was the detected value at the minimum concentration of the sample, and Signal was the detected value at the current concentration of the sample.
as §1

Structure (SMILES) | IC50 [1] | IC50 [2]
NC(=O)[C@@H]1C[C@H](F)CN1Cc1ccc(OCc2cccc(F)c2)cc1 [Example 1, (2S,4S)-4-fluoro-1-(4-(3-fluorobenzyloxy)benzyl)pyrrolidine-2-formamide] | 46 µM | 0.019 µM
NC(=O)[C@@H]1C[C@H](F)CN1Cc1ccc(OCc2cccc(F)c2)cc1F [Example 3, (2S,4S)-4-fluoro-1-(2-fluoro-4-(3-fluorobenzyloxy)benzyl)pyrrolidine-2-formamide] | 29 µM | 0.03 µM
